Data on two molecules can be found in ChEMBL document CHEMBL2074539, “ATP-dependent transport of bilirubin glucuronides by the multidrug resistance protein MRP1 and its hepatocyte canalicular isoform MRP2” (Biochem J, 1997).

The target of data set [1] is T1, ATP-binding cassette sub-family C member 2 (Rattus norvegicus, UniProt Q63120). As to the kind of experiment: TP_TRANSPORTER: inhibition of LTC4 uptake (LTC4: 0.05 uM) in bile canalicular membranes from Wistar rat. The format is functional, cell membranes, Bile canalicular membrane.
For data set [2], the target named is T2, Multidrug resistance-associated protein 1 (Homo sapiens, UniProt P33527). The experiment in a line: TP_TRANSPORTER: inhibition of LTC4 uptake (LTC4: 0.05 uM) in membrane vesicle from MRP1-expressing HeLa cells. The format is functional, cell membranes.
Data set [3] concerns the target T2, Multidrug resistance-associated protein 1. As to the kind of experiment: TP_TRANSPORTER: uptake in membrane vesicle from MRP1-expressing HeLa cells. The format is functional, cell membranes.
Data set [4] concerns the target T1, ATP-binding cassette sub-family C member 2. The experiment in a line: TP_TRANSPORTER: uptake in bile canalicular membranes from Wistar/TR- rat. The format is functional, cell membranes, Bile canalicular membrane.
Data set [5] has as its target ATP-binding cassette sub-family C member 2 (Homo sapiens, UniProt Q92887). As to the kind of experiment: TP_TRANSPORTER: inhibition of LTC4 uptake (LTC4: 0.05 uM) in HepG2 cells. It is filed as functional, cell-based.

T1 sequence (Q63120 whole entry): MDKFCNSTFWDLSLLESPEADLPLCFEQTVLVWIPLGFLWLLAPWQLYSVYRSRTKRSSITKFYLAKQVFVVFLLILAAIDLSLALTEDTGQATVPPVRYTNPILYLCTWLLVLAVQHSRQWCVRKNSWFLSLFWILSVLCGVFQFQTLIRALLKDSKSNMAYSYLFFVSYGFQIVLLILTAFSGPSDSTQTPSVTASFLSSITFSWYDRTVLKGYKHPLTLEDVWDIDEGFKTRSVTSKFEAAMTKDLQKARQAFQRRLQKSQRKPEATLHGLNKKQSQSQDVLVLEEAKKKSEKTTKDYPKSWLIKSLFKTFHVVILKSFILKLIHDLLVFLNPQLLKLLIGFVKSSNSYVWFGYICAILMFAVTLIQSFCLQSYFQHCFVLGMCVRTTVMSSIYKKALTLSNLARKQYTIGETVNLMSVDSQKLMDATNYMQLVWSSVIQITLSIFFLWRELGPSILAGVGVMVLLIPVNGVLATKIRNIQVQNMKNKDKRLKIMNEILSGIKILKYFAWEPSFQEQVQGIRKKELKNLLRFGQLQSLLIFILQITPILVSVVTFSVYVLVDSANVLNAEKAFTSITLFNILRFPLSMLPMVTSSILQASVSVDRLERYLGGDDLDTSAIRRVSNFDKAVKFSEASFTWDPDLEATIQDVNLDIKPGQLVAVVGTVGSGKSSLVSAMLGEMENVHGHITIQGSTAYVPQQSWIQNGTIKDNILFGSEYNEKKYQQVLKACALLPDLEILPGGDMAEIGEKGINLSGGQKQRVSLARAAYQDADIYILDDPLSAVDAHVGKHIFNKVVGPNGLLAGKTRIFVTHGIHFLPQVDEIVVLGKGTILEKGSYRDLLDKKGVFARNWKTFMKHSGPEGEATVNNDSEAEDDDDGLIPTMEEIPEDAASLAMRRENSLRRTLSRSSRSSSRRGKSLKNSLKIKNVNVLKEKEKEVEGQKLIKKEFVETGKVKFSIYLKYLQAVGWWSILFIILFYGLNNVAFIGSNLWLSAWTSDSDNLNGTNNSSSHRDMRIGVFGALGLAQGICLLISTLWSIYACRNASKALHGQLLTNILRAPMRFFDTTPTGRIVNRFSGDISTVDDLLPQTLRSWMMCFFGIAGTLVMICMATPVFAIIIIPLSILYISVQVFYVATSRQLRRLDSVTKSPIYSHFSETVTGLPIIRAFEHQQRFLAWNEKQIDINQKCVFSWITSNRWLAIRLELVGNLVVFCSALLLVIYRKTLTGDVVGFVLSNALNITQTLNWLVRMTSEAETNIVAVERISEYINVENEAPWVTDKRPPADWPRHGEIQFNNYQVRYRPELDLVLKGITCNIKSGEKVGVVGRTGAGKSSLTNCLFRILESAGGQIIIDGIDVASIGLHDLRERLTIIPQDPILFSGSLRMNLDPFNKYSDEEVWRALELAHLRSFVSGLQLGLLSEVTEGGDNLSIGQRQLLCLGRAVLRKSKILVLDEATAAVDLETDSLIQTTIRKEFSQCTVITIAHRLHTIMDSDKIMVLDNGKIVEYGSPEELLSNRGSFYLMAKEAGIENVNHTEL
T2 sequence (P33527 whole entry): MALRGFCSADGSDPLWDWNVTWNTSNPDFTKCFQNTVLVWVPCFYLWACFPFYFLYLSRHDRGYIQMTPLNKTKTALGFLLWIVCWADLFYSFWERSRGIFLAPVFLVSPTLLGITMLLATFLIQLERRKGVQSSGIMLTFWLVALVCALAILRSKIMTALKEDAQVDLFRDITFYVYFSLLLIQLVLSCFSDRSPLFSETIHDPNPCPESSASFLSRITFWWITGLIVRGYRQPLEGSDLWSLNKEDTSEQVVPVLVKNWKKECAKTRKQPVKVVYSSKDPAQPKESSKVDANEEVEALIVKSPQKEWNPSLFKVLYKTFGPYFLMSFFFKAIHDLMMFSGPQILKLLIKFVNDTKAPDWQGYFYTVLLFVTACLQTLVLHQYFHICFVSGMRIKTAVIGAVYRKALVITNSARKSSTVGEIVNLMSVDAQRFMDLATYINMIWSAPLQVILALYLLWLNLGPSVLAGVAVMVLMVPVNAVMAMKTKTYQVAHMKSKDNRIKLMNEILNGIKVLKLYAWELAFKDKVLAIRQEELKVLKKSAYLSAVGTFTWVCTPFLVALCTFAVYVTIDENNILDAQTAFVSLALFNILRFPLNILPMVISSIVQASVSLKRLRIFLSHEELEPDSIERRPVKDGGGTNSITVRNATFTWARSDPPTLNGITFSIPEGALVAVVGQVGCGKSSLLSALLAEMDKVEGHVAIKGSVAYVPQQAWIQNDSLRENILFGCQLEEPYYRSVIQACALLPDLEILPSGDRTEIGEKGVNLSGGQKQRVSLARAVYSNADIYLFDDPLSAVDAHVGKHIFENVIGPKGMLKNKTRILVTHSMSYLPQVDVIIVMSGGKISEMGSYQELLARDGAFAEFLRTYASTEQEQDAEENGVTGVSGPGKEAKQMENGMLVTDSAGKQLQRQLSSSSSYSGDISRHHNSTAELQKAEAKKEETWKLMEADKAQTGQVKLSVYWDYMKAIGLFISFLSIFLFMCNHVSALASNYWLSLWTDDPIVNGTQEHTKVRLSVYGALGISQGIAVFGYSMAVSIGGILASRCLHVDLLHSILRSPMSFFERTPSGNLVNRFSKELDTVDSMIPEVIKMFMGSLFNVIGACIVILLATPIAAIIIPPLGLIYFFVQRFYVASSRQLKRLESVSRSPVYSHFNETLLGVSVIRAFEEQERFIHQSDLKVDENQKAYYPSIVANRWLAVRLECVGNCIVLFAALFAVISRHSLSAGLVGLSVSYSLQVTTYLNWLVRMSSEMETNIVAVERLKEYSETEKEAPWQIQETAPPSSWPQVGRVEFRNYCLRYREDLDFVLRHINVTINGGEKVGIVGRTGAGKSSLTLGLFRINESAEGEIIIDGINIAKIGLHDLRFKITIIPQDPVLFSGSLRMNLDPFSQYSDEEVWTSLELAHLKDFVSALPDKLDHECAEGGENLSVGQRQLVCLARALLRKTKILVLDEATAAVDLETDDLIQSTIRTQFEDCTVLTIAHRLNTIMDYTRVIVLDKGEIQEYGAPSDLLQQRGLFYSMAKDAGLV
ATP-binding cassette sub-family C member 2 (Homo sapiens, UniProt Q92887), sequence (Q92887 whole entry): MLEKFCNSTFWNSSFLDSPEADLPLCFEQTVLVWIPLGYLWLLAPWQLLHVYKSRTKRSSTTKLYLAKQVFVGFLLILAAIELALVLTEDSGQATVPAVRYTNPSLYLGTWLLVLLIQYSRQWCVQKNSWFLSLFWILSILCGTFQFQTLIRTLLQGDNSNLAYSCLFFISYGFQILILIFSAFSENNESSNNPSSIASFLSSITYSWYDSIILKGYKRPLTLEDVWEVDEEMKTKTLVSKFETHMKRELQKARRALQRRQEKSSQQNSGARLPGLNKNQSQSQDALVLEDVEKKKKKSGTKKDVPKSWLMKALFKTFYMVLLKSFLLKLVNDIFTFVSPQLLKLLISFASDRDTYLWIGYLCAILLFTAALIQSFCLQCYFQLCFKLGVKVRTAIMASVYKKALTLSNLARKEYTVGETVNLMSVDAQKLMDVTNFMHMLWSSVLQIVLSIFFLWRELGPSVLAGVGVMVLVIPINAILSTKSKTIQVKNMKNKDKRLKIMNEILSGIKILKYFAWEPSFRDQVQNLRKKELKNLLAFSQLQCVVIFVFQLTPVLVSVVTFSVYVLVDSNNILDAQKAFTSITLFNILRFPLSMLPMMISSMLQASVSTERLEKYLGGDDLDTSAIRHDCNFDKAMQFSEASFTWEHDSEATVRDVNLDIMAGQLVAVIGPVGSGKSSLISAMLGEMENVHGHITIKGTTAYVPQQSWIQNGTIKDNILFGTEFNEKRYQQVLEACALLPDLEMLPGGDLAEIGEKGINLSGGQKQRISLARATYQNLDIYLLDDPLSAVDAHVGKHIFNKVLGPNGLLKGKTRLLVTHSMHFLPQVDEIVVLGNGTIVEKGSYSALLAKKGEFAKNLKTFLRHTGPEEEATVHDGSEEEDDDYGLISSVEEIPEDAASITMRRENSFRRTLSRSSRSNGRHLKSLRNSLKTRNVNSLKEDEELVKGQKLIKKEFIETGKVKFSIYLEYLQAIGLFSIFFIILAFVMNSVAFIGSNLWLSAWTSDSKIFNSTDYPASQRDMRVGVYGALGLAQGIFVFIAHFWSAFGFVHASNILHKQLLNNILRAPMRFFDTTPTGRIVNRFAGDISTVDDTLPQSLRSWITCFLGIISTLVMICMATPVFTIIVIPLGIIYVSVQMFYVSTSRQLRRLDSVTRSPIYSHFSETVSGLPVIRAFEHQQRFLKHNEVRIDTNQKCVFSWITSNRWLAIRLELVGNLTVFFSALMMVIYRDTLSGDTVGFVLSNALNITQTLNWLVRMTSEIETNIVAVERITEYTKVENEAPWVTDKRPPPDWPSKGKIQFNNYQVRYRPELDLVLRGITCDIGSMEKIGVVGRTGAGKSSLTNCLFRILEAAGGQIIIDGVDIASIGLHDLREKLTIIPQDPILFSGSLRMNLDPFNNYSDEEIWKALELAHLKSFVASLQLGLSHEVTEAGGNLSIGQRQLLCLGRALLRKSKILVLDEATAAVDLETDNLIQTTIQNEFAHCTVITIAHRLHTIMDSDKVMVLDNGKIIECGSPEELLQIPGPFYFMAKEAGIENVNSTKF

With `C=CC1=C(C)/C(=C/c2[nH]c(Cc3[nH]c(/C=C4\NC(=O)C(C)=C4C=C)c(C)c3CCC(=O)O[C@@H]3OC(C(=O)O)[C@@H](O)C(O)C3O)c(CCC(=O)O)c2C)NC1=O` (stereo not given in full) [BILIRUBIN MONOGLUCURONIDE], the values for the IC50 in data set [1], in data set [2] and in data set [5] were 0.12 µM, 0.42 µM and 0.28 µM, respectively. In addition, the Activity result in data set [3] and in data set [4] was “substrate [+]” each time.

With `C=CC1=C(C)/C(=C/c2[nH]c(Cc3[nH]c(/C=C4\NC(=O)C(C)=C4C=C)c(C)c3CCC(=O)O[C@@H]3O[C@@H](C(=O)O)[C@H](O)[C@@H](O)[C@@H]3O)c(CCC(=O)O[C@@H]3O[C@H](C(=O)O)[C@H](O)[C@H](O)[C@@H]3O)c2C)NC1=O`, the figures for the IC50 in data set [1], in data set [2] and in data set [5] were 0.1 µM, 0.75 µM and 0.4 µM, respectively. Also, the Activity entry in data set [3] and in data set [4] was “substrate [+]” throughout.
